For one assay, the system named is hypertensive rats. The assay can be described thus: blood pressure in rats with renal hypertension (aortic ligature between the renal arteries). The note with it: for decrease of blood pressure: intravenous 350 nmoles, thirteen Saralasin-responder rats, pooled value (2 rats methyl ester, 11 rats arginine salt). Type of assay: in vivo, rat. The protocol: The experimental model of renal hypertension developped in rats by ROJO-ORTEGA and GENEST [Can. J.Phys. Pharm. 46 883-885 (1968)] was used.
A complete ligature of the aorta between the renal arteries was performed in twenty male Sprague-Dawley rats, weighing 300 g. They were investigated between 5 and 10 days after surgery. The blood pressure was measured in the conscious unrestrained rats, through a carotid cannula inserted 24 hours before measurements were made.
The maximal decrease in blood pressure induced by an injection of "Saralasin" was compared [Sar 1, Ala-8 Angiotensin II] in the same animals, to the maximum fall in blood pressure induced by the soluble derivatives of pepstatin according to the invention.
In these thirteen rats, the average blood pressure decrease was 44.5±8.5 mmHg. The intravenous injection of 350 nmoles of pepstatinyl-Arginine-O-Methyl Ester (2 rats), or the Arginine salt of Pepstatinyl (11 rats) decreased blood pressure by 48.3±8.2 mmHg. The maximal fall in blood pressure was obtained 5 minutes after Saralasin, and 6 minutes after soluble pepstatin. Blood pressure returned to the control level 10 minutes after the injection of both inhibitors.

A further assay addresses hog renin. In words: in vitro inhibition of hog renin on synthetic N-acetylated tetradecapeptide substrate, fluorimetry, Dixon plot. The assay is classed as biochemical. The note with it: 10 milli-Goldblatt units hog renin, pH 6, one hour, 37° C., Dixon representation; read-out: inhibition constant. The protocol:
10 milli-Goldblatt units of hog renin, from the same source as above, were incubated at pH 6 for one hour at 37° C. in the presence of a synthetic substrate constituted by a N-acetylated renin tetradecapeptide [GALEN et al. Biochem. Biophys. Acta, 523, 485-493 (1978)]. The tetrapeptide quantity produced per hour of incubation was measured by fluorimetry. Three different concentrations of N-acetylated tetradecapeptide were used, that is to say 2.3, 4.6 and 9.3 nmoles with increasing amounts of pepstatin or methyl ester of pepstatin-[…].25, 0.50 and 0.75 10^-6 mole/l).

Non-standard residues stand in square brackets, D forms with d. Residues, ends and D or L forms follow the SMILES beside them. *: point of attachment. Sta = CC(C)C[C@H](N)[C@@H](O)CC(=O)O; Isovaleryl = CC(C)CC(=O)*

As to `CNCC(=O)N[C@@H](CCCN=C(N)N)C(=O)N[C@H](C(=O)N[C@@H](Cc1ccc(O)cc1)C(=O)N[C@H](C(=O)N[C@@H](Cc1cnc[nH]1)C(=O)N1CCC[C@H]1C(=O)N[C@@H](C)C(=O)O)C(C)C)C(C)C` [Saralasin, Sar 1, Ala-8 Angiotensin II], the “rats with a blood pressure fall of 10 mmHg and more” value in the assay with hypertensive rats (among 20 hypertensive rats, intravenous 140 nmoles) was determined as 13 rats. In the assay on hypertensive rats (intravenous 140 nmoles), the “time of maximal fall in blood pressure after injection” value was found to be 5 min and the “time of return of blood pressure to the control level after injection” value stood at 10 min. For the same molecule, the “average blood pressure decrease” value with hypertensive rats (intravenous 140 nmoles, thirteen responder rats) is 44.5±8.5 mmHg.
With `COC(=O)[C@H](CCCNC(=N)N)NC(=O)C[C@H](O)[C@H](CC(C)C)NC(=O)[C@H](C)NC(=O)C[C@H](O)[C@H](CC(C)C)NC(=O)[C@@H](NC(=O)[C@@H](NC(=O)CC(C)C)C(C)C)C(C)C` [methyl ester of pepstatin-arginine] (Isovaleryl-VV[Sta]A[Sta]R-OMe), the Ki at hog renin came out at 315 nM. Further, the “decrease of blood pressure” value in the assay with hypertensive rats is on record as 48.3±8.2 mmHg.
`CC(C)CC(=O)N[C@H](C(=O)N[C@H](C(=O)N[C@@H](CC(C)C)[C@@H](O)CC(=O)N[C@@H](C)C(=O)N[C@@H](CC(C)C)[C@@H](O)CC(=O)N[C@@H](CCCNC(=N)N)C(=O)O)C(C)C)C(C)C` [pepstatin-arginine] (Isovaleryl-VV[Sta]A[Sta]R-OH): in the assay on hypertensive rats, the “decrease of blood pressure” value amounted to 48.3±8.2 mmHg.

For the origin of these results see US4185096A, “Novel derivatives of pepstatin, their preparation and compositions containing them” (Agence Nationale de Valorisation de la Recherche (ANVAR), priority 1977, dated 1980).
